Drawing on US11999713B2, “Methionine adenosyltransferase 2a (MAT2A) inhibitors and uses thereof” (Insilico Medicine IP Limited, priority 2021, dated 2024), this text covers IC50 for 18 molecules.

pIC50: −log10 of the molar value.

MAT2A, sequence (P31153 whole entry, species assumed): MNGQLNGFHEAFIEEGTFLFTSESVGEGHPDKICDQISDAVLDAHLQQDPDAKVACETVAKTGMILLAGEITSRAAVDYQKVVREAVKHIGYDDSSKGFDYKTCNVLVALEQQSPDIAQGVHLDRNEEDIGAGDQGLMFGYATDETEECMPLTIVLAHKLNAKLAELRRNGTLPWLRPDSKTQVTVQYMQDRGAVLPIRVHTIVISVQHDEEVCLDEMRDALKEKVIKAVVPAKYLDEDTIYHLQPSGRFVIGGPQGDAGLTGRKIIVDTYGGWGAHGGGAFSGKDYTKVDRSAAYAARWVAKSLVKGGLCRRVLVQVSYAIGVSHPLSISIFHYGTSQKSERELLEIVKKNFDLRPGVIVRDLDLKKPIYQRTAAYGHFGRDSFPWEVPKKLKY

This experiment concerns the target MAT2A (Homo sapiens, UniProt P31153). Nature of the experiment: MAT2A Biochemical Assay. Conditions: 1 uM start, 3-fold dilution, 10 doses; Biomol Green, O.D.620; read-out: MAT2A enzymatic IC50. The method, then:
Example A: MAT2A Biochemical Assay
Compounds described herein were tested as follows:
(1). Prepared 1× Assay buffer.
(2). Preparation of compound concentration gradient: the compounds test condition were 1 uM start, 3-fold dilution, 10 doses, singlet or duplicate. 100× concentration compounds were prepared in 384-well plate. Then used Echo 550 to transfer 250 nl to a 384-reaction plate for later use. Added 250 nl of 100% DMSO to the negative and positive control wells.
(3). Prepared 1.67× final concentration enzyme solution with 1× Assay buffer.
(4). Added 15 μl of 1.67× Enzyme solution to the compound wells and positive control wells; added 15 μl of 1× Assay buffer to the negative control wells.
(5). Centrifuged at 1000 rpm for 30 seconds and incubate for 15 minutes.
(6). Prepared 2.5× final concentration Substrate mix solution with 1× Assay buffer.
(7). Added 10 μl of 2.5× final concentration Substrate mix solution to start the reaction.
(8). Centrifuged at 1000 rpm for 30 seconds and incubate for 150 minutes.
(9). Added 50 μl Biomol Green to stop the reaction, centrifuge at 1000 rpm for 30 seconds and incubate for 15 minutes, read O.D.620, process data.
(1) Using GraphPad Prism 5.
(2) % Inh=(Max signal−Compound signal)/(Max signal−Min signal)*100.
(3) Max signal was obtained from the positive control wells.
(4) Min signal was obtained from the negative control wells.
Broadly, the pIC50 is the negative decadic logarithm of the IC50, by convention in mol/L. Consider `C#CC1(O)CN(c2nc(=O)n(-c3ccccc3Cl)c3cc(Cl)ccc23)C1` [Example 12, 7-chloro-1-(2-chlorophenyl)-4-(3-ethynyl-3-hydroxyazetidin-1-yl)quinazolin-2(1H)-one], for which the pIC50 was 6.30 to 7.00.
For `C#CCNc1nc(=O)n(-c2cccnc2)c2cc(C(F)(F)F)ncc12` [Example 58, 4-(prop-2-yn-1-ylamino)-1-(pyridin-3-yl)-7-(trifluoromethyl)pyrido[4,3-d]pyrimidin-2(1H)-one] the value was 6.30 to 7.00.
For `C#CCNc1nc(=O)n(-c2cccnc2)c2cc(C(F)(F)F)cnc12` [Example 55, 4-(prop-2-yn-1-ylamino)-1-(pyridin-3-yl)-7-(trifluoromethyl)pyrido[3,2-d]pyrimidin-2(1H)-one] the value was 6.00 to 6.30.
For `C#CCNc1nc(=O)n(-c2cnn(C)c2)c2cc(C(F)(F)F)ccc12` [Example 72, 1-(1-methyl-1H-pyrazol-4-yl)-4-(prop-2-yn-1-ylamino)-7-(trifluoromethyl)quinazolin-2(1H)-one] the value was 6.30 to 7.00.
In the case of `NC/C=C/CNc1nc(=O)n(-c2cccnc2)c2cc(C(F)(F)F)ccc12` [Example 79, (E)-4-((4-aminobut-2-en-1-yl)amino)-1-(pyridin-3-yl)-7-(trifluoromethyl)quinazolin-2(1H)-one], the pIC50 is 6.30 to 7.00.
For the molecule `C#CC1(Nc2nc(=O)n(-c3cccnc3)c3nc(C(F)(F)F)ncc23)CC1` [Example 62, 4-((1-ethynylcyclopropyl)amino)-1-(pyridin-3-yl)-7-(trifluoromethyl)pyrimido[4,5-d]pyrimidin-2(1H)-one], the pIC50 was 7.00 to 7.30.
Next, `C=CC1(Nc2nc(=O)n(-c3cccnc3C)c3cc(C(F)(F)F)cc(OC)c23)CC1` [Example 78]: 7.00 to 7.30.
For `C#CC(C)Nc1nc(=O)n(-c2cccnc2)c2cc(C(F)(F)F)ncc12` (stereo not drawn) [Example 59, 4-(but-3-yn-2-ylamino)-1-(pyridin-3-yl)-7-(trifluoromethyl)pyrido[4,3-d]pyrimidin-2(1H)-one], the pIC50 was 6.30 to 7.00.
`C#CC1CCCN(c2nc(=O)n(-c3ccccc3Cl)c3cc(Cl)ccc23)C1` (stereo not drawn) [Example 11, 7-chloro-1-(2-chlorophenyl)-4-(3-ethynylpiperidin-1-yl)quinazolin-2(1H)-one]: the pIC50 was 6.30 to 7.00.
As to `C#CCNc1nc(=O)n(-c2cccnc2)c2cc(C(F)(F)F)cc(OC(F)F)c12` [Example 39, 5-(difluoromethoxy)-4-(prop-2-yn-1-ylamino)-1-(pyridin-3-yl)-7-(trifluoromethyl)quinazolin-2(1H)-one], the pIC50 was 7.00 to 7.30.
In the case of `C#CCOc1nc(=O)n(-c2cccnc2)c2cc(Cl)ccc12` [Example 9, 7-chloro-4-(prop-2-yn-1-yloxy)-1-(pyridin-3-yl)quinazolin-2(1H)-one], the pIC50 is 6.30 to 7.00.
For `CN(C)CC#CCNc1nc(=O)n(-c2cccnc2)c2cc(Cl)ccc12` [Example 3, 7-chloro-4-((4-(dimethylamino)but-2-yn-1-yl)amino)-1-(pyridin-3-yl)quinazolin-2(1H)-one] the value was 7.00 to 7.30.
For `C#CC1(Nc2nc(=O)n(-c3cccnc3C)c3nc(C(F)(F)F)cc(OC)c23)CC1` [Example 43, 4-((1-ethynylcyclopropyl)amino)-5-methoxy-1-(2-methylpyridin-3-yl)-7-(trifluoromethyl)pyrido[2,3-d]pyrimidin-2(1H)-one] the value was 7.00 to 7.30.
For `C#CC1(Nc2nc(=O)n(-c3cccnc3C)c3cc(C(F)(F)F)cc(OC(F)F)c23)CC1` [Example 41, 5-(difluoromethoxy)-4-((1-ethynylcyclopropyl)amino)-1-(2-methylpyridin-3-yl)-7-(trifluoromethyl)quinazolin-2(1H)-one] the value was 7.00 to 7.30.
Regarding `C#CCNc1nc(=O)n(-c2cncnc2)c2cc(Cl)ccc12` [Example 71, 7-chloro-4-(prop-2-yn-1-ylamino)-1-(pyrimidin-5-yl)quinazolin-2(1H)-one], the pIC50 is 6.30 to 7.00.
For `C#CC1(Nc2nc(=O)n(-c3cccnc3)c3cc(C(F)(F)F)ncc23)CC1` [Example 60, 4-((1-ethynylcyclopropyl)amino)-1-(pyridin-3-yl)-7-(trifluoromethyl)pyrido[4,3-d]pyrimidin-2(1H)-one] the value was 6.30 to 7.00; for `C#CCNc1nc(=O)n(-c2cc(C)cnc2C)c2cc(C(F)(F)F)ccc12` [Example 44, 1-(2,5-dimethylpyridin-3-yl)-4-(prop-2-yn-1-ylamino)-7-(trifluoromethyl)quinazolin-2(1H)-one], 6.30 to 7.00; for `C#CCNc1nc(=O)n(-c2cnccn2)c2cc(C(F)(F)F)cc(F)c12` [Example 32, 5-fluoro-4-(prop-2-yn-1-ylamino)-1-(pyrazin-2-yl)-7-(trifluoromethyl)quinazolin-2(1H)-one], 7.00 to 7.30.
